Legend:
[1] = tested on: human myeloid leukemia cells (K562); experiment: Cytotoxic assay (modified MTT), K562; type: cell-based; settings: mean ± SD of three parallel experiments
Procedure: (§1) All the compounds mentioned above were tested for their cytotoxic activities against human myeloid leukemia cells (K562), human liver cancer cells (BEL-7402), human gastric cancer cells (SGC-7901), human non-small cell lung cancer cells (A549) and human HeLa cervical cancer cells. […] Compared to the cytotoxic activity of 7, the cytotoxic activity of 5 was much stronger.
(§2) All above-mentioned compounds were evaluated for their cytotoxicity in five human tumor cell lines: K562, BEL-7402, SGC-7901, A549 and HeLa cells which were bought from the Cell Bank of Type Culture Collection of the Shanghai Institute of Cell Biology, Chinese Academy of Sciences, using modified MTT methods. The details of this are described in our previous paper. The positive control was cisplatin.

[2] = tested on: human HeLa cervical cancer cells; experiment: Cytotoxic assay (modified MTT), HeLa; type: cell-based; settings: mean ± SD of three parallel experiments
Procedure: as §1, §2

[3] = tested on: K562, BEL-7402, SGC-7901, A549 and HeLa cells; experiment: Cytotoxic activity, summary over five human tumor cell lines; type: cell-based; settings: range over compounds 5 and 7 and K562, BEL-7402, SGC-7901, A549, HeLa, read-out: IC50 values, range over the five cancer cell lines
Text: Two undescribed p-terphenyl derivatives, asperterphenylcins A–B (1–2), and two undescribed diphenyl ether derivatives, asperdiphenylcins A–B (3–4), together with three previously described p-terphenyl derivatives—4″-deoxyterprenin (5), terphenyllin (6), and 3″-hydroxyterphenyllin (7)—were obtained from the solid-rice culture of the marine-derived fungus Aspergillus candidus HM5-4, which was isolated from sponges from the South China Sea. Their structures were elucidated by HRESIMS data and NMR spectroscopic analysis.
as §2

[4] = tested on: human liver cancer cells (BEL-7402); experiment: Cytotoxic assay (modified MTT), BEL-7402; type: cell-based; settings: mean ± SD of three parallel experiments
Procedure: as §1, §2

[5] = tested on: human gastric cancer cells (SGC-7901); experiment: Cytotoxic assay (modified MTT), SGC-7901; type: cell-based; settings: mean ± SD of three parallel experiments
Procedure: as §1, §2

[6] = tested on: human non-small cell lung cancer cells (A549); experiment: Cytotoxic assay (modified MTT), A549; type: cell-based; settings: mean ± SD of three parallel experiments
Procedure: as §1, §2

[7] = tested on: Neoscytalidium dimidiatum; experiment: Antifungal activity, filter paper disc agar diffusion method; type: cell-based; settings: includes 6 mm disc, 10.0 µg/disc (carbendazim 10 μL, 1.0 mg/mL), mean ± SD, triplicate
Procedure: The antifungal activities of three known compounds (5–7) were determined by the filter paper disc agar diffusion method.
The inhibitory activities of some compounds against six phytopathogenic fungi (Fusarium oxysporum f. sp. cubense, Colletotrichum gloeosporioides, Thielaviopsis paradoxa, Bipolaris cactivora (Petrak) Alcorn, Neoscytalidium dimidiatum, and Colletotrichum scovillei) were evaluated using the filter paper disc agar diffusion method; 250 μL of the fungal solution was aspirated onto the corresponding solid medium and spread evenly with a cotton swab. Samples were dissolved in MeOH to prepare solutions of 1.0 mg/mL and 3.0 mg/mL concentrations. Carbendazim (10 μL, 1.0 mg/mL) was used as a positive control and MeOH (10 μL) was used as negative control. The diameter of the inhibition zones of the plates cultured at 37 °C for 24 h were measured including the 6 mm disc diameter. Experiments were performed in triplicate.

α-glucosidase = α-glucosidase (Saccharomyces cerevisiae, UniProt P53341); experiment: α-Glucosidase inhibition assay (PNPG substrate); type: biochemical
Sequence of α-glucosidase (P53341 whole entry): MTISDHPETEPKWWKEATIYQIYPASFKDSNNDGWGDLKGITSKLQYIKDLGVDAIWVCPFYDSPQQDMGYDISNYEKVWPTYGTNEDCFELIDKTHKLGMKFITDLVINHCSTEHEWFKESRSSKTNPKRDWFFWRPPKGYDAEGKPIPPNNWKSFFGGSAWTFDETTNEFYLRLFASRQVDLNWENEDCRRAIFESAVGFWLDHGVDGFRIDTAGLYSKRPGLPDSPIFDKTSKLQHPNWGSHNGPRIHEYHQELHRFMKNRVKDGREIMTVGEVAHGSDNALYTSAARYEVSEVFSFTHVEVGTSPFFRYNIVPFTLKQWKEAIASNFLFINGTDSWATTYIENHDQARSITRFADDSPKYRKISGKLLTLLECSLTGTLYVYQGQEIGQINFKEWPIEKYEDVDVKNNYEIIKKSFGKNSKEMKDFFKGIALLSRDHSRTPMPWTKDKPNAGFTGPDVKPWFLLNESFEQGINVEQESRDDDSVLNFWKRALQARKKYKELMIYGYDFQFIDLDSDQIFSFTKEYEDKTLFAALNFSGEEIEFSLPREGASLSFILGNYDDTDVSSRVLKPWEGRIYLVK
Procedure: All abovementioned compounds were measured for their inhibitory effects against α-glucosidase, using PNPG as the substrate. The enzyme inhibitory assay was carried out by a formerly described method, with some modifications. Compounds were dissolved in DMSO and six concentration gradients were set in turn. All the assays were performed in 0.1 M sodium phosphate buffer (PH = 6.8). The 10 μL sample was mixed with 100 μL α-glucosidase solution (0.2 U/mL, Sigma, Kanagawa, Japan) and shaken well, then added to a 96-well plate and incubated at 37 °C for 15 min. Subsequently, 40 μL of 2.5 mM 4-nitrophenyl-α-D-glucopyranoside was added and further incubated at 37 °C for 15 min. DMSO was used as a control and the blank wells contained buffer in place of substrate. The OD values were tested at 405 nm with a microplate reader. […] The percentage inhibition was calculated by the following equation:% inhibition = ((ODcontrol − ODsample)/(ODcontrol − ODblank)) × 100

[8] = Homo sapiens, Bel-7402, BEL-7402 cells
[9] = Homo sapiens, SGC-7901, SGC-7901 cells

| α-glucosidase inhibitory activity (in words) (α-glucosidase) | SMILES | IC50 ([1]; Homo sapiens) | IC50 ([2]; Homo sapiens) | IC50 [3] [µM] | IC50 [4, 8] | IC50 [5, 9] | IC50 ([6]; Homo sapiens, A549, A549 cells) | IC50 [1] [µM] | IC50 ([4]; BEL-7402 cells) [µM] | IC50 ([5]; SGC-7901 cells) [µM] | IC50 ([6]; A549 cells) [nM] | IC50 [2] [µM] | diameter of inhibition zone against N. dimidiatum [7] [mm] |
| --- | --- | --- | --- | --- | --- | --- | --- | --- | --- | --- | --- | --- | --- |
| – | COc1cc(-c2ccc(O)c(O)c2)c(OC)c(O)c1-c1ccc(O)cc1 [Compound 7, 3″-hydroxyterphenyllin] | 34 ± 0.4 µM | 53.6 ± 0.73 µM | 3.32 to 60.4 | – | – | – | – | – | – | – | – | – |
| – | COc1cc(-c2ccc(O)cc2)c(OC)c(O)c1-c1ccc(O)cc1 [Compound 6, terphenyllin] | > 20 µg/mL | > 20 µg/mL | – | > 20 µg/mL | > 20 µg/mL | > 20 µg/mL | – | – | – | – | – | – |
| – | N.N.[Cl][Pt][Cl] [Cisplatin, cisplatin, reference compound] | – | – | – | – | – | – | 3.08 ± 0.05 | 4.02 ± 0.06 | 4.11 ± 0.02 | 1930 ± 20 | 11.3 ± 0.15 | – |
| – | COC(=O)Nc1nc2ccccc2[nH]1 [Carbendazim, reference compound] | – | – | – | – | – | – | – | – | – | – | – | 55.00 ± 0.82 |
| no α-glucosidase inhibitory activity | COc1cccc2c1C(=O)OCc1cc(C(=O)O)cc(O)c1O2 [Compound 4, Asperdiphenylcin B] | > 20 µg/mL | > 20 µg/mL | – | > 20 µg/mL | > 20 µg/mL | > 20 µg/mL | – | – | – | – | – | – |
| completely disappeared | COc1cc(-c2ccccc2)c(OC)c(O)c1-c1ccc(OCC=C(C)C)c(O)c1 [Compound 5, 4″-deoxyterprenin] | 15.03 ± 0.14 µM | 44.77 ± 0.13 µM | 3.32 to 60.4 | 6.69 ± 0.12 µM | 3.67 ± 0.17 µM | 3320 ± 100 nM | – | – | – | – | – | 31.67 ± 2.36 |
| no α-glucosidase inhibitory activity | COc1cccc2c1C(=O)OCc1cc(COC(C)=O)cc(O)c1O2 [Compound 3, Asperdiphenylcin A] | > 20 µg/mL | > 20 µg/mL | – | > 20 µg/mL | > 20 µg/mL | > 20 µg/mL | – | – | – | – | – | – |
| – | COc1c(-c2ccc(O)cc2)cc(O)c(-c2ccc(O)cc2)c1OC [Compound 2, Asperterphenylcin B] | > 20 µg/mL | > 20 µg/mL | – | > 20 µg/mL | > 20 µg/mL | > 20 µg/mL | – | – | – | – | – | – |
| – | COc1ccc(O)c(-c2c(OC)cc(-c3ccc(O)cc3)c(OC)c2O)c1 [Compound 1, Asperterphenylcin A] | > 20 µg/mL | > 20 µg/mL | – | > 20 µg/mL | > 20 µg/mL | > 20 µg/mL | – | – | – | – | – | – |
